Test results as given in patent US9980943B2, “Methods of treating muscular dystrophy” (BOARD OF REGENTS OF THE NEVADA SYSTEM OF HIGHER EDUCATION, …, priority 2013, dated 2018).
Like-named read-outs stand apart in the source and are kept apart here.

Assays:
Format in all cases: cell-based, mouse
[1] = system: α7 integrin (LacZ reporter in α7βgal+/− myoblasts); experiment: Myoblast α7+/LacZ integrin FDG assay (Burkin assay in myoblasts, 96-well); details: 96-well; for fold induction at 0.5 µM / fold induction at 1 µM / fold induction at 5 µM / fold induction at 10 µM / fold induction at 20 µM / fold induction at 40 µM: Mus musculus, Myoblast, 48 h, α7+/LacZ myoblasts; for Burkin Assay in Myoblasts, value relative to DMSO: SU9516 analogs, N=3-6
[2] = system: α7 integrin (LacZ reporter in α7+/LacZ myotubes); experiment: Myotube α7 integrin FDG assay (Burkin assay in myotubes, 96-well); details: for fold induction at 0.5 µM / fold induction at 1 µM / fold induction at 5 µM / fold induction at 10 µM / fold induction at 20 µM / fold induction at 40 µM: Mus musculus, Myotube, myotubes; for Burkin Assay in Myotubes, value relative to DMSO: SU9516 analogs, 96-well, N=3-6
[3] = system: β-galactosidase in CMV-LacZ C2C12 myoblasts; experiment: CMV-LacZ secondary screen in C2C12 myoblasts (β-Gal stabilizing assay); details: for CMV-LACZ in Myoblasts (β-galactosidase activity relative to DMSO): CMV-LacZ C2C12 myoblasts; for CMV-LACZ in Myoblasts, value relative to DMSO: SU9516 analogs, C2C12 CMV-LacZ, N=2
Outline: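 β-gal stabilization was measured in C2C12 myoblasts or myotubes stably transfected with a CMV-driven LacZ construct, using the FDG β-gal assay. Compounds were tested in dose-response at 0.5, 1, 5, 10, 20 and 40 μM, with two replicates per point.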

[4] = system: β-galactosidase in CMV-LacZ C2C12 myotubes; experiment: CMV-LacZ secondary screen in C2C12 myotubes (β-Gal stabilizing assay); details: for CMV-LACZ in Myotubes, value relative to DMSO: SU9516 analogs, C2C12 CMV-LacZ, N=2
Outline: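 A secondary screen identifies compounds that stabilize β-gal independently of the native promoter, using CMV-LacZ C2C12 cells. Curves span 0.5–40 μM at six levels, in duplicate.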

CCOC(=O)C1CCCN(C(=O)CNS(=O)(=O)c2ccc(Br)s2)C1 (stereo not drawn) [MLS000086970-01]
fold induction at 0.5 µM ([1]; 0.5 uM, read-out: Burkin Assay in Myoblasts, signal relative to DMSO): 0.982
fold induction at 0.5 µM ([1]; 0.5 uM, read-out: Burkin Assay in Myoblasts, value relative to DMSO): 1.01
fold induction at 1 µM ([1]; 1 uM, read-out: Burkin Assay in Myoblasts, signal relative to DMSO): 1.07
fold induction at 1 µM ([1]; 1 uM, read-out: Burkin Assay in Myoblasts, value relative to DMSO): 1.2
fold induction at 5 µM ([1]; 5 uM, read-out: Burkin Assay in Myoblasts, signal relative to DMSO): 0.858
fold induction at 5 µM ([1]; 5 uM, read-out: Burkin Assay in Myoblasts, value relative to DMSO): 1.6
fold induction at 10 µM ([1]; 10 uM, read-out: Burkin Assay in Myoblasts, signal relative to DMSO): 0.872
fold induction at 10 µM ([1]; 10 uM, read-out: Burkin Assay in Myoblasts, value relative to DMSO): 0.955
fold induction at 20 µM ([1]; 20 uM, read-out: Burkin Assay in Myoblasts, signal relative to DMSO): 0.854
fold induction at 20 µM ([1]; 20 uM, read-out: Burkin Assay in Myoblasts, value relative to DMSO): 1.02
fold induction at 40 µM ([1]; 40 uM, read-out: Burkin Assay in Myoblasts, signal relative to DMSO): 0.781
fold induction at 40 µM ([1]; 40 uM, read-out: Burkin Assay in Myoblasts, value relative to DMSO): 0.934
fold induction at 0.5 µM ([2]; 0.5 uM, read-out: Burkin Assay in Myotubes (signal relative to DMSO)): 0.953
fold induction at 1 µM ([2]; 1 uM, read-out: Burkin Assay in Myotubes (signal relative to DMSO)): 0.922
fold induction at 5 µM ([2]; 5 uM, read-out: Burkin Assay in Myotubes (signal relative to DMSO)): 1.09
fold induction at 10 µM ([2]; 10 uM, read-out: Burkin Assay in Myotubes (signal relative to DMSO)): 0.961
fold induction at 20 µM ([2]; 20 uM, read-out: Burkin Assay in Myotubes (signal relative to DMSO)): 0.931
fold induction at 40 µM ([2]; 40 uM, read-out: Burkin Assay in Myotubes (signal relative to DMSO)): 0.887
fold induction at 0.5 µM ([2]; 0.5 uM, read-out: Burkin Assay in Myotubes, α7 integrin LacZ reporter signal relative to DMSO): 1
fold induction at 1 µM ([2]; 1 uM, read-out: Burkin Assay in Myotubes, α7 integrin LacZ reporter signal relative to DMSO): 1.09
fold induction at 5 µM ([2]; 5 uM, read-out: Burkin Assay in Myotubes, α7 integrin LacZ reporter signal relative to DMSO): 0.864
fold induction at 10 µM ([2]; 10 uM, read-out: Burkin Assay in Myotubes, α7 integrin LacZ reporter signal relative to DMSO): 0.958
fold induction at 20 µM ([2]; 20 uM, read-out: Burkin Assay in Myotubes, α7 integrin LacZ reporter signal relative to DMSO): 0.961
fold induction at 40 µM ([2]; 40 uM, read-out: Burkin Assay in Myotubes, α7 integrin LacZ reporter signal relative to DMSO): 0.971
CMV-LACZ in Myoblasts (β-galactosidase activity relative to DMSO) ([3]; 0.5 uM): 0.9925
CMV-LACZ in Myoblasts (β-galactosidase activity relative to DMSO) ([3]; 1 uM): 1.0504
CMV-LACZ in Myoblasts (β-galactosidase activity relative to DMSO) ([3]; 5 uM): 0.8994
CMV-LACZ in Myoblasts (β-galactosidase activity relative to DMSO) ([3]; 10 uM): 0.9068
CMV-LACZ in Myoblasts (β-galactosidase activity relative to DMSO) ([3]; 20 uM): 1.0197
CMV-LACZ in Myoblasts (β-galactosidase activity relative to DMSO) ([3]; 40 uM): 0.8880
fold induction at 0.5 µM ([4]; Mus musculus, C2C12, read-out: CMV-LACZ in Myotubes, signal relative to DMSO, 0.5 uM, C2C12 CMV-LacZ myotubes, fold relative to DMSO): 0.967
fold induction at 1 µM ([4]; Mus musculus, C2C12, read-out: CMV-LACZ in Myotubes, signal relative to DMSO, 1 uM, C2C12 CMV-LacZ myotubes, fold relative to DMSO): 0.885
fold induction at 5 µM ([4]; Mus musculus, C2C12, read-out: CMV-LACZ in Myotubes, signal relative to DMSO, 5 uM, C2C12 CMV-LacZ myotubes, fold relative to DMSO): 1.11
fold induction at 10 µM ([4]; Mus musculus, C2C12, read-out: CMV-LACZ in Myotubes, signal relative to DMSO, 10 uM, C2C12 CMV-LacZ myotubes, fold relative to DMSO): 0.974
fold induction at 20 µM ([4]; Mus musculus, C2C12, read-out: CMV-LACZ in Myotubes, signal relative to DMSO, 20 uM, C2C12 CMV-LacZ myotubes, fold relative to DMSO): 0.987
fold induction at 40 µM ([4]; Mus musculus, C2C12, read-out: CMV-LACZ in Myotubes, signal relative to DMSO, 40 uM, C2C12 CMV-LacZ myotubes, fold relative to DMSO): 0.988

COc1ccc2c(c1)C(=C(C#N)C#N)C(=O)N2CCc1ccccc1 [MLS000763074-01]
Burkin Assay in Myoblasts, value relative to DMSO ([1]; 0.5 uM): 1.199
Burkin Assay in Myoblasts, value relative to DMSO ([1]; 1 uM): 1.067
Burkin Assay in Myoblasts, value relative to DMSO ([1]; 5 uM): 0.843
Burkin Assay in Myoblasts, value relative to DMSO ([1]; 10 uM): 1.134
Burkin Assay in Myoblasts, value relative to DMSO ([1]; 20 uM): 0.6586
Burkin Assay in Myoblasts, value relative to DMSO ([1]; 40 uM): 0.6085
Burkin Assay in Myotubes, value relative to DMSO ([2]; 0.5 uM): 1.0274
Burkin Assay in Myotubes, value relative to DMSO ([2]; 1 uM): 1.128
Burkin Assay in Myotubes, value relative to DMSO ([2]; 5 uM): 1.043
Burkin Assay in Myotubes, value relative to DMSO ([2]; 10 uM): 0.907
Burkin Assay in Myotubes, value relative to DMSO ([2]; 20 uM): 0.1921
Burkin Assay in Myotubes, value relative to DMSO ([2]; 40 uM): 0.2622
CMV-LACZ in Myoblasts, value relative to DMSO ([3]; 0.5 uM): 0.8431
CMV-LACZ in Myoblasts, value relative to DMSO ([3]; 1 uM): 0.8256
CMV-LACZ in Myoblasts, value relative to DMSO ([3]; 5 uM): 1.1447
CMV-LACZ in Myoblasts, value relative to DMSO ([3]; 10 uM): 1.1966
CMV-LACZ in Myoblasts, value relative to DMSO ([3]; 20 uM): 1.2981
CMV-LACZ in Myoblasts, value relative to DMSO ([3]; 40 uM): 1.6644
CMV-LACZ in Myotubes, value relative to DMSO ([4]; 0.5 uM): 1.0089
CMV-LACZ in Myotubes, value relative to DMSO ([4]; 1 uM): 0.8593
CMV-LACZ in Myotubes, value relative to DMSO ([4]; 5 uM): 1.0487
CMV-LACZ in Myotubes, value relative to DMSO ([4]; 10 uM): 0.9645
CMV-LACZ in Myotubes, value relative to DMSO ([4]; 20 uM): 1.7671
CMV-LACZ in Myotubes, value relative to DMSO ([4]; 40 uM): 1.9682
